{
  "source": "patent US10266482B2",
  "about": "“Long-term memory inducing agent” (NATIONAL UNIVERSITY CORPORATION TOKYO MEDICAL AND DENTAL …, priority 2017, dated 2019)",
  "key": {"[1]": {"system": "aged mice", "assay": "Object recognition test (ORT) with aged mice", "assay_type": "in vivo, ICR mice", "conditions": "for long-term memory formation (DI value, test trial 24 hours later): aged (14-month-old) mice", "protocol": "2-month-old male ICR mice (young mice) and 14-month-old male ICR mice (aged mice) were used. The rearing room was kept at 22° C. at cycles of 12 hours of light period/12 hours of dark period, and feed and drinking water were given freely. All of the experiments were conducted during the latter 6 hours of the light period.\nN(1)-acetyl-5-methoxykynuramine (AMK) was used as a drug. AMK was diluted with physiological saline for the administration experiment with the aged mouse, and a dosage of 0.1 mg/kg bw or 1 mg/kg bw was intraperitoneally administered.\nFor an object recognition test, two each of two types of objects (height 6 cm×diameter 4 cm, height 7 cm×diameter 7 cm) and an observation box (height 30 cm×width 40 cm×depth 30 cm) were used. This test consisted of an acquisition trial and a test trial, and the experimental individuals were allowed to explore in the observation box 5 minutes a day for 3 days immediately before the experiment in order to adapt the experimental individuals to the observation box. In the acquisition trial, two identical objects were presented to the observation box and the experimental individuals were allowed to search for a minute. When the acquisition trials were conducted for more than one time, the acquisition trials were conducted at one-hour intervals. The test trial was conducted 24 hours or 4 days after the last acquisition trial. In the test trials, one of the two identical objects presented in the acquisition trials was exchanged with a different object (new object), and the experimental individuals were allowed to search for 5 minutes. During the test trials, the time that took each of the mice to search for the object was measured, and the ratio of the searching time of the two objects (DI value: discrimination index) was calculated according to the following formula to examine the relative cognitive levels to the new object. DI value (%)=Tn×100/(Tf+Tn)\nOne-sample t-test was employed to compare the DI value with the expected value (50%)."}, "[2]": {"system": "young crickets", "assay": "Olfactory associative learning test in young crickets (single-time training, memory a day after)", "assay_type": "in vivo, Gryllus bimaculatus"}, "[3]": {"system": "young crickets", "assay": "Olfactory associative learning test in young crickets (single-time training, memory a day after)", "assay_type": "in vivo, Gryllus bimaculatus", "protocol": "Male crickets about one week old (young) or three week old (aged) following molting into adult forms were used. Each of the crickets was placed into a 100 ml beaker three days before the experiment, and deprived of water for 2-3 days to enhance the desire of taking water. As the feed, about 10 pieces of insect feed were placed into the beaker.\nA 1-ml syringe was used for smell and reward associative conditioning upon learning/training. The syringe contained water as the reward while a piece of paper (3 mm×3 mm) perfumed with peppermint essence was pierced into the needle to about 1 cm from the tip thereof. In this learning/training, the filter paper on the needle was brought near the antennae of the cricket to allow it to smell for 3 seconds and then a drop of water was put out from the tip of the needle and applied to the mouth of the cricket. When the associative conditioning was conducted for four times, the conditionings were conducted at intervals of 5 minutes.\nSmell preference was examined by placing each cricket into a test arena. The arena consisted of a “standby chamber” and a “test chamber”. The floor of the “test chamber” had two holes each with a diameter of 4 cm which were communicated with two smell sources. The smell source was a plastic pot containing filter paper perfumed with essence of a smell (peppermint or vanilla) and covered with a gauze lid. In the preference test, each cricket was placed into the test chamber and allowed to walk freely for 4 minutes to search for the two smell sources. Two minutes after the start of the test, a rotary board having the smell sources was rotated to reverse the positions of the vanilla and the peppermint smells. During the test, the time the cricket spent placing its mouth to the gauze of the smell source was measured as a visiting time to the smell source, and the ratio of the visiting times of the two types of smells (PI value: preference index) was calculated according to the following formula to assess the relative preference to the mint smell. PI value=Tp/(Tp+Tv)×100 • Tp: Searching time for smell associated with the reward (peppermint) • Tv: Searching time for smell not associated with the reward (vanilla)\nIf the preferences for the two smells are equivalent, PI will be 50. Since crickets inherently prefer vanilla smell over peppermint smell, an average PI value prior to the learning/training is usually 25-35, The preference test was conducted before and after the learning/training to examine whether preference for the smell changes due to the learning/training.\nAs drugs, melatonin, N(1)-acetyl-N(2)-formyl-5-methoxykynuramine (AFMK), N(1)-acetyl-5-methoxykynuramine (AMK), 6-Hydroxymelatonin (6-HM), L-kynurenine, kynuramine, 8-Bromoguanoine 3′,5′-cyclic monophosphate sodium salt (8 br-cGMP) and cycloheximide (CHX) were used. Melatonin, 6-HM, kynurenine, kynuramine and 8br-cGMP were purchased from SIGMA Aldrich, AFMK was purchased from Cayman Chemical, AMK was purchased from Toronto Research Chemicals and CHX was purchased from Wako Pure Chemical Industries. The drugs other than 8br-cGMP and CHX were first dissolved in ethanol and then diluted with physiological saline for crickets to the respective concentrations. In the administration experiment, 3 μl was administered using a 10-μl syringe to the brain via an aperture opened through a simple eye of the head.\nPI values were tested before the training and a day after the training in the same group by a Wilcoxon's-test.", "remark": "listed apart in the source"}},
  "data": [
    {"smiles": "COc1ccc(N)c(C(=O)CCNC(C)=O)c1", "note": "[Compound 1, N-[3-(2-amino-5-methoxyphenyl)-3-oxopropyl]-acetamide]", "values": [
      {"measurement": "long-term memory formation (DI value, test trial 24 hours later)", "setting": "[1]; 0.1 mg/kg bw i.p. 15 minutes after two one-minute acquisition trials", "value": "a long-term memory was formed"},
      {"measurement": "long-term memory formation (DI value, test trial 24 hours later)", "setting": "[1]; 1 mg/kg bw i.p. 15 minutes after one one-minute acquisition trial", "value": "a long-term memory was formed"},
      {"measurement": "duration of induced long-term memory", "setting": "[1]; aged mice, 1 mg/kg bw i.p. 15 minutes after one acquisition trial, test trials 1 and 4 days later", "value": "at least 4 days"},
      {"measurement": "amount in 1 g of the food per kg of body weight", "setting": "[2]; based on the results from ingesting 1 μM for 10 μl", "value": "≥ 2.32", "unit": "µg"},
      {"measurement": "long-term memory formation a day after the training by oral administration", "setting": "[2]; drinking 10 μl of aqueous solution (5 μM) 5 minutes after single-time training", "value": "long-term memory was formed"},
      {"measurement": "long-term memory formation a day after the training", "setting": "[3]; 8 nM, 3 μl to the brain, 20 minutes after single-time training", "value": "not"},
      {"measurement": "sufficient concentration relative to the concentration of melatonin", "setting": "[3]; 40 nM AMK versus 5 μM melatonin", "value": "1/125"},
      {"measurement": "long-term memory formation a day after the training", "setting": "[3]; 40 nM, 3 μl to the brain, 20 minutes after single-time training", "value": "formed"},
      {"measurement": "long-term memory formation a day after the training", "setting": "[3]; 0.2 μM, 3 μl to the brain, 20 minutes after single-time training", "value": "formed"},
      {"measurement": "long-term memory formation a day after the training", "setting": "[3]; 1 μM, 3 μl to the brain, 20 minutes after single-time training", "value": "formed"},
      {"measurement": "long-term memory formation a day after the training", "setting": "[3]; 1 μM, 3 μl, administered between 20 minutes and 80 minutes after single-time training", "value": "a long-term memory was formed"},
      {"measurement": "long-term memory formation a day after the training", "setting": "[3]; 5 μM, 3 μl to the brain, 20 minutes after single-time training, listed as AMK", "value": "long-term memories were formed"},
      {"measurement": "long-term memory formation a day after the training", "setting": "[3]; 5 μM, 3 μl to the brain, 20 minutes before single-time training", "value": "long-term memories were formed"},
      {"measurement": "administration concentration sufficient to form long-term memory", "setting": "[3]; 3 μl to the brain 20 minutes after single-time training", "value": 40, "unit": "nM"},
      {"measurement": "timing of administration sufficient to form long-term memory", "setting": "[3]; time following the single-time training, melatonin and AFMK 5 μM, AMK 1 μM", "value": "up to 80 minutes"}
    ]}
  ]
}
